From EP0326331B1, “Substituted quinolines and cinnolines” (Dow AgroSciences LLC, priority 1988, dated 1989)
Read-outs that look alike come from different tables or passages of the source.

Columns and labels:
Assay type in all cases: in vivo
[1] = system: Twospotted spider mites (Tetranychus urticae Koch); assay: Mite/insect screen, SM; details: for mortality at 200 ppm: Tetranychus urticae, read-out: SM RESULTS %
In short: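 Activity is expressed as percent mortality at the indicated spray concentrations. Plants are sprayed to runoff on upper and lower leaf surfaces with aqueous dilutions of an acetone/alcohol emulsifiable formulation, then dried for one hour.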

[2] = system: southern armyworm (Spodopetra eridania Cramer); assay: Mite/insect screen, SAW; details: Spodoptera eridania, read-out: SAW RESULTS %
In short: (§1)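 Compounds dissolved in 50:50 acetone/alcohol containing sulfonate/nonionic emulsifier blends, then diluted with water to the indicated concentrations. Leaves sprayed on both surfaces to runoff at 10 psi and dried one hour. Percent mortality scored after standard exposure periods.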

[3] = system: Septoria tritici (leaf blotch); assay: Test 1 greenhouse foliar spray screen, leaf blotch on wheat; details: disease control rating, foliar spray on wheat, 400 ppm (+++ at 100 ppm)
[4] = system: Botrytis cinerea (gray mold); assay: Test 1 greenhouse foliar spray screen, gray mold on grape berries; details: disease control rating, spray on grape berries, 400 ppm (+++ at 100 ppm)
[5] = system: Puccinia recondita tritici (leaf rust); assay: Test 1 greenhouse foliar spray screen, leaf rust on wheat; details: disease control rating, foliar spray on wheat, 400 ppm (+++ at 100 ppm)
[6] = system: Pyricularia oryzae (rice blast); assay: whole plant or invertebrate; details: disease control rating, foliar spray on rice, 400 ppm (+++ at 100 ppm)
[7] = system: Cercospora beticola (leaf spot); assay: Test 1 greenhouse foliar spray screen, leaf spot on sugar beet; details: disease control rating, foliar spray on sugar beet, 400 ppm (+++ at 100 ppm)
[8] = system: Pseudoperonospora cubensis (downy mildew); assay: Test 1 greenhouse foliar spray screen, downy mildew on squash; details: disease control rating, foliar spray on squash, 400 ppm (+++ at 100 ppm)
[9] = system: Erysiphe graminis tritici (powdery mildew); assay: Test 1 greenhouse foliar spray screen, powdery mildew on wheat; details: disease control rating, foliar spray on wheat, 400 ppm (+++ at 100 ppm)
corn rootworm = assay: Mite/insect screen, CRW; details: for mortality at 12 ppm: read-out: CRW RESULTS %
In short: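 Compounds were dissolved in 50:50 acetone/alcohol containing sulfonate/nonionic emulsifier blends (23 g/L plus 13 g/L), then diluted with water to the test concentrations. Percent mortality was scored after standard exposure periods.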

[10] = system: melon aphids (Aphis gossypii Glover); assay: Mite/insect screen, MA; details: for mortality at 200 ppm: Aphis gossypii, read-out: MA RESULTS %
In short: as §1

[11] = system: Venturia inaequalis (apple scab); assay: Test 1 greenhouse foliar spray screen, apple scab on apple seedling; details: disease control rating, foliar spray on apple seedling, 400 ppm (+++ at 100 ppm)
[12] = percent mortality, SAW, SM & MA RATE 200 PPM
[13] = percent mortality, CRW RATE 12.00 PPM

Structure (SMILES)	mortality at 200 ppm [1, 12] [%]	mortality at 200 ppm [2, 12] [%]	LEAF BLOT [3]	GRAY MOLD [4]	LEAF RUST [5]	RICE BLAST [6]	LEAF SPOT [7]	DOWN MDEW [8]	POWD MDEW [9]	mortality at 12 ppm (corn rootworm; [13]) [%]	mortality at 200 ppm [10, 12] [%]	APPL SCAB [11]	mortality at 200 ppm [1] [%]	mortality at 200 ppm [2] [%]	mortality at 12 ppm (corn rootworm) [%]	mortality at 200 ppm [10] [%]	SM RESULTS % [1, 12] [%]	CRW RESULTS % (corn rootworm; [13]) [%]	MA RESULTS % [10, 12] [%]
Fc1cccc(F)c1CCNc1ccnc2c(F)cccc12 [Example 65, N-[2-(2,6-difluorophenyl)ethyl]-8-fluoro-4-quinolinamine]	0	0	+ (20-89% control at 400 ppm)	- (0-19% control at 400 ppm)	++ (90-100% control at 400 ppm)	+ (20-89% control at 400 ppm)	- (0-19% control at 400 ppm)	+++ (90-100% control at 100 ppm)	+ (20-89% control at 400 ppm)	0	0	- (0-19% control at 400 ppm)							
Fc1cccc(CCNc2ccnc3c(F)cccc23)c1 [Example 66, 8-fluoro-N-[2-(3-fluorophenyl)ethyl]-4-quinolinamine]	0	0	+ (20-89% control at 400 ppm)	- (0-19% control at 400 ppm)	+++ (90-100% control at 100 ppm)	++ (90-100% control at 400 ppm)	+++ (90-100% control at 100 ppm)	+++ (90-100% control at 100 ppm)	+ (20-89% control at 400 ppm)	0	0	- (0-19% control at 400 ppm)							
COc1cc(CCNc2ccnc3ccccc23)cc(OC)c1 [Example 67, N-[2-(3,5-dimethoxyphenyl)ethyl]-4-quinolinamine]	0	0	- (0-19% control at 400 ppm)	- (0-19% control at 400 ppm)	+ (20-89% control at 400 ppm)	+ (20-89% control at 400 ppm)	+ (20-89% control at 400 ppm)	++ (90-100% control at 400 ppm)	- (0-19% control at 400 ppm)	0	0	- (0-19% control at 400 ppm)							
COc1ccccc1CCNc1ccnc2c(F)cccc12 [Example 68, 8-fluoro-N-[2-(2-methoxyphenyl)ethyl]-4-quinolinamine]	0	0	+++ (90-100% control at 100 ppm)	- (0-19% control at 400 ppm)	+++ (90-100% control at 100 ppm)	+ (20-89% control at 400 ppm)	- (0-19% control at 400 ppm)	++ (90-100% control at 400 ppm)	+ (20-89% control at 400 ppm)	0	0	- (0-19% control at 400 ppm)							
Clc1cnc2ccccc2c1NCC(Cl)c1ccccc1 (stereo not drawn) [Example 69, 3-chloro-N-(2-chloro-2-phenylethyl)-4-quinolinamine]			- (0-19% control at 400 ppm)	- (0-19% control at 400 ppm)	+ (20-89% control at 400 ppm)	+ (20-89% control at 400 ppm)	- (0-19% control at 400 ppm)	+++ (90-100% control at 100 ppm)	+ (20-89% control at 400 ppm)			- (0-19% control at 400 ppm)	0	0	0	0			
FC(F)(F)c1cc(C(F)(F)F)c2c(NCCc3ccccc3)ccnc2c1 [Example 70, N-(2-phenylethyl)-5,7-bis-(trifluoromethyl)-4-quinolinamine]	0	0	- (0-19% control at 400 ppm)	- (0-19% control at 400 ppm)	+ (20-89% control at 400 ppm)	+ (20-89% control at 400 ppm)	- (0-19% control at 400 ppm)	- (0-19% control at 400 ppm)	+++ (90-100% control at 100 ppm)	0	0	- (0-19% control at 400 ppm)							
OCc1cnc2c(F)cccc2c1NCCc1ccccc1 [Example 73, 8-fluoro-4-[(2-phenylethyl)amino]-3-quinolinemethanol]	0	0	- (0-19% control at 400 ppm)	- (0-19% control at 400 ppm)	- (0-19% control at 400 ppm)	+ (20-89% control at 400 ppm)	- (0-19% control at 400 ppm)	++ (90-100% control at 400 ppm)	- (0-19% control at 400 ppm)	0	0	- (0-19% control at 400 ppm)							
Fc1cccc2c(NCCc3ccc(Cl)c(Cl)c3)ccnc12 [Example 75, N-[2-(3,4-dichlorophenyl)ethyl]-8-fluoro-4-quinolinamine]	0	0	+ (20-89% control at 400 ppm)	- (0-19% control at 400 ppm)	++ (90-100% control at 400 ppm)	+ (20-89% control at 400 ppm)	- (0-19% control at 400 ppm)	+++ (90-100% control at 100 ppm)	+ (20-89% control at 400 ppm)	0	0	- (0-19% control at 400 ppm)							
CC(CNc1ccnc2c(F)cccc12)c1ccccc1 (stereo not drawn) [Example 77, 8-fluoro-N-(2-phenylpropyl)-4-quinolinamine]	0	0	- (0-19% control at 400 ppm)	- (0-19% control at 400 ppm)	++ (90-100% control at 400 ppm)	+ (20-89% control at 400 ppm)	- (0-19% control at 400 ppm)	+++ (90-100% control at 100 ppm)	+ (20-89% control at 400 ppm)	0	0	+ (20-89% control at 400 ppm)							
Fc1ccc(CCNc2ccnc3c(F)cccc23)cc1 [Example 78, 8-fluoro-N-[2-(4-fluorophenyl)ethyl]-4-quinolinamine]	0	20	+ (20-89% control at 400 ppm)	- (0-19% control at 400 ppm)	+++ (90-100% control at 100 ppm)	++ (90-100% control at 400 ppm)	+++ (90-100% control at 100 ppm)	+++ (90-100% control at 100 ppm)	+ (20-89% control at 400 ppm)	0	0	- (0-19% control at 400 ppm)					0	0	0
CC(CNc1ccnc2c(F)cccc12)(c1ccccc1)c1ccccc1 [Example 80, N-(2,2-diphenylpropyl)-8-fluoro-4-quinolinamine]	0	0	- (0-19% control at 400 ppm)	- (0-19% control at 400 ppm)	++ (90-100% control at 400 ppm)	++ (90-100% control at 400 ppm)	+ (20-89% control at 400 ppm)	+++ (90-100% control at 100 ppm)	+ (20-89% control at 400 ppm)	0	0	- (0-19% control at 400 ppm)							
